Key:
anti-digoxin antibodies [1] = settings: known compounds for immobilization (background); cited from earlier work
anti-digoxin antibodies [2] = test: TDx Abbott Digoxin II assay, antigenicity (cross-reactivity) of cardiac glycoside analogs; format: binding; settings: TDx analyzer, aqueous solutions in TDx dilution buffer, observed assay concentration divided by actual analog concentration times 100
Procedure: (§1) The antigencity of cardiac glycoside analogs was first determined using the TDx@ analyzer and the Abbott Digoxin II assay commercially available from Abbott Laboratories, Abbott Park, Il 60064. Analogs were evaluated as aqueous solutions in TDx dilution buffer. Several analogs were also subsequently evaluated using the new digoxin assay described herein (see generally Example IV) using a ouabain triacetate solid phase prepared in accordance with Example IIB. Analogs evaluated were: [drawing 3] wherein R1 =R2 =R3 =Ac, X=O, Y1, Z1 and Y2, Z2 =a bond connecting the two carbon atoms to which they are attached (A); R1 =R2 =R3 =Ac, X=O, Y1 =OH, Z1 =H, Y2 and Z2 =a bond connecting the two carbon atoms to which they are attached (B); R1 =R2 =R3 =Ac, X=O, Y1 =Y2 =OH, Z1 =Z2 =H (C); and R1 =R2 =R3 =H, X=N, Y1 =Y2 =OH, Z1 =Z2 =H (D). Cross-reactivity was defined as the observed assay concentration divided by the actual analog concentration times 100.

[3] = tested on: β-galactosidase-labeled F(ab')2; test: Non-competitive assay for digoxin in serum with immobilized ouabain triacetate solid phase (standard curve)
Procedure: The general assay format consists of preincubation of excess β-galactosidase-labeled F(ab')2 (Example II A) with sample such that sample is quantitatively and rapidly bound to form an analyte-β-galactosidase-labeled F(ab')2 conjugate. An aliquot of this mixture is transferred to a vessel containing a ouabain triacetate-albumin-trisacryl solid phase prepared in accordance with procedure of Example II B and having a characteristic density to be easily suspended in solution yet sufficiently dense to rapidly sediment by gravity. The solid phase material rapidly captures the excess unconjugated β-galactosidase-labeled F(ab')2 and sediments. Following the capture reaction and sedimentation an aliguot containing analyte-β-galactosidase-labeled F(ab')2 is transfered to a cuvette for quantitation using a fluorogenic substrate.
Serum solutions containing 0, 0.5, 1.0, 2.0, 3.0 and 5.0 nanograms per milliliter of digoxin were each tested following the same assay protocol described below. A control was also run with zero digoxin and no solid phase material. Fifty microliters of serum sample was mixed with 25 microliters of the β-galactosidase-labeled F(ab')2 (Example II A) and 325 microliters of TDx dilution buffer. The reaction mixture was incubated at 34-35 degrees Celsius for 6 minutes and then a 60 microliter aliquot and 55 microliters of TDx dilution buffer was added to 10 mg of solid phase material (Example II B). The mixture was incubated for 10 minutes with mixing. 400 ul of TDx dilution buffer was then added to the mixture.
The mixture was allowed to rest briefly whereupon it separated into a liquid and solid phase. The β-galactosidase activity of the supernatant was measured by quantitating the production of fluorescein. The measurement was made using 10 micromolar di-(β-D-galactosyl)-fluorescein as substrate in TDx dilution buffer containing 1 mM MgCl2.

[4] = tested on: β-galactosidase-labeled F(ab')2 (anti-digoxin); test: New digoxin assay (ouabain triacetate solid phase), cross-reactivity of analogs; format: binding, Rabbit; settings: new digoxin assay using ouabain triacetate solid phase; observed assay concentration divided by actual analog concentration times 100
Procedure: as §1

## C[C@H]1O[C@@H](O[C@H]2[C@@H](O)C[C@H](O[C@H]3[C@@H](O)C[C@H](O[C@H]4CC[C@@]5(C)[C@H](CC[C@@H]6[C@@H]5C[C@@H](O)[C@]5(C)[C@@H](C7=CC(=O)OC7)CC[C@]65O)C4)O[C@@H]3C)O[C@@H]2C)C[C@H](O)[C@@H]1O [Digoxin]
anti-digoxin antibodies [1]
  affinity for labeled anti digoxin antibody, in words: relatively high affinity
anti-digoxin antibodies [2]
  CROSS-REACTIVITY (%) DIGOXIN II: 100%
[3]; digoxin 0.5 ng/mL in serum
  Fluorescence Measured Rate: 160
[3]; digoxin 1.0 ng/mL in serum
  Fluorescence Measured Rate: 220
[3]; digoxin 2.0 ng/mL in serum
  Fluorescence Measured Rate: 448
[3]; digoxin 3.0 ng/mL in serum
  Fluorescence Measured Rate: 745
[3]; digoxin 5.0 ng/mL in serum
  Fluorescence Measured Rate: 1231
[4]
  CROSS-REACTIVITY (%) NEW ASSAY: 100%

## CC(=O)OCC12C(OC(C)=O)CC(OC3OC(C)C(O)C(O)C3O)CC1(O)CCC1C2C(OC(C)=O)CC2(C)C(C3=CC(=O)OC3)CCC12O (centres unmarked) [Ouabain Triacetate (C)]
anti-digoxin antibodies [2]
  CROSS-REACTIVITY (%) DIGOXIN II: 3.7 × 10^-4%
[4]
  CROSS-REACTIVITY (%) NEW ASSAY: 2.2 × 10^-4%

## CC(=O)OCC12C(=CCC3C4=CCC(C5=CC(=O)OC5)C4(C)CC(OC(C)=O)C31)CC(OC1OC(C)C(O)C(O)C1O)CC2OC(C)=O (centres unmarked) [Ouabain Triacetate (A)]
anti-digoxin antibodies [2]
  CROSS-REACTIVITY (%) DIGOXIN II: 1.6 × 10^-3%

## CC1OC(OC2C(O)CC(OC3C(O)CC(OC4CCC5(C)C(CCC6C5CC(O)C5(C)C(C7=CC(=O)NC7)CCC65O)C4)OC3C)OC2C)CC(O)C1O (centres unmarked) [Digoxin Lactam]
anti-digoxin antibodies [2]
  CROSS-REACTIVITY (%) DIGOXIN II: 0.41%

## CC(=O)OCC12C(OC(C)=O)CC(OC3OC(C)C(O)C(O)C3O)CC1(O)CCC1C3=CCC(C4=CC(=O)OC4)C3(C)CC(OC(C)=O)C12 (centres unmarked) [Ouabain Triacetate (B)]
anti-digoxin antibodies [2]
  CROSS-REACTIVITY (%) DIGOXIN II: 1.5 × 10^-3%

## CC1OC(OC2CC(O)C3(CO)C4C(O)CC5(C)C(C6=CC(=O)NC6)CCC5(O)C4CCC3(O)C2)C(O)C(O)C1O (centres unmarked) [Ouabain Lactam (D)]
anti-digoxin antibodies [2]
  CROSS-REACTIVITY (%) DIGOXIN II: 9.1 × 10^-4%

## C[C@@H]1O[C@@H](O[C@H]2C[C@@H](O)[C@]3(CO)[C@H]4[C@H](O)C[C@]5(C)[C@@H](C6=CC(=O)OC6)CC[C@]5(O)[C@@H]4CC[C@]3(O)C2)[C@H](O)[C@H](O)[C@H]1O [Ouabain]
anti-digoxin antibodies [1]
  affinity for labeled anti digoxin antibody, in words: relatively high affinity
anti-digoxin antibodies [2]
  CROSS-REACTIVITY (%) DIGOXIN II: 2.0 × 10^-2%
[4]
  CROSS-REACTIVITY (%) NEW ASSAY: 1.8 × 10^-3%
